Results taken from patent publication US8258186B2, “Pharmaceutical for oral delivery comprising MGBG” (Pathologica, LLC, priority 2009, dated 2012).

Assays:
[1] = tested on: carrageenan air pouch inflammation; assay: Carrageenan air pouch model; format: in vivo, Swiss Webster mice; conditions: mice, MGBG PO BID 3, 10, 30 mg/kg/dose
Excerpt: Injection of air subcutaneously will induce the formation of a connective tissue cavity lined with cells that resemble and function like a synovial lining. This method is commonly known as the Air Pouch Model and is a useful animal model of inflammation that can be generated in a relatively short period of time. The air pouch may be created by subcutaneous (SQ) injection of a volume of sterile air in the dorsal neck region. The model may be used to test the efficacy and potency of compounds such as polyamine analogues and polyamine biosynthesis inhibitors such as MGBG in reducing various cellular and biochemical indicators of inflammation when administered as an oral (PO) gavage administration.
Animals, compounds, and dosing. Healthy male Swiss Webster mice of 7-9 weeks of age and at least 30 g in weight were used. Animals were divided into six groups of thirty. Each group was administered 6 mL of air subcutaneously as described below on days 4 and 7. […] Tolerance of test compound dosing was monitored in mice by daily visual inspections of physical and behavioral changes, such as examined changes in body posture, hair coat, activity, excreta, etc., and dosing reevaluated upon negative findings. […]
Exudate, Plasma, and Histological Collection. The systemic exposure of the test article was evaluated as follows. Plasma samples were prepared and evaluated as follows. […]

[2] = Rhesus macaque single-dose pharmacokinetics; format: in vivo, rhesus monkeys
Description: Two groups of three male rhesus monkeys were fasted overnight before being administered the test article, MGBG, as either a single bolus intravenous dose of 1 mg/kg (Group 1) or as a single oral gavage dose of 10 mg/kg (Group 2). Dose formulation analysis verified administered dose solutions as within 14% of targeted concentrations of 1 and 10 mg/kg for Groups 1 and 2, respectively.
Blood samples were collected into tubes containing lithium heparin from the femoral vein/artery (approximately 1.0 mL) for plasma MGBG concentration measurement from all intravenously dosed animals prior to dosing and at approximately T=0.083 (5 min), 0.25 (15 min), 0.5 (30 min), 1, 2, 4, 8, and 24 hours after dosing. Blood samples for plasma MGBG concentration measurement were collected from all orally dosed animals prior to dosing at approximately T=1, 2, 4, 8, 12, 24, and 36 hours after dosing. Food was also withheld through the first four hours of blood sample collection.
The samples were centrifuged under refrigerated conditions following completion of sample collection at each interval. The resulting plasma was separated and stored frozen at approximately −70° C. until analysis.
PK analysis was performed on the individual plasma concentration-time profiles for MGBG using the WinNonlin non-compartmental approach (linear trapezoidal rule for AUC calculations). Nominal dose values and sampling times were used for calculations. All MGBG plasma concentration measurements reported as BQL (<2.51 ng/mL) were set equal to zero for the purpose of analysis. Following IV and PO administration of MGBG, plasma PK disposition parameters were calculated using the WinNonlin default selection criteria for the selection of the Lambda Z.
Consequently, a model-dependent two-compartmental analysis was used to calculate bioavailability.

[3] = male, rhesus monkey, plasma, single bolus IV 1 mg/kg, mean
[4] = male, rhesus monkey, plasma, single oral gavage 10 mg/kg, mean
[5] = male, rhesus monkey, single bolus IV 1 mg/kg, plasma, mean
[6] = male, rhesus monkey, single oral gavage 10 mg/kg, plasma, mean

## CC(/C=N/NC(=N)N)=N\NC(=N)N [MGBG, 1,1′[methylethanediylidene]dinitrilodiguanidine]
[1]
  efficacy, changes relative to control indicative of reduced inflammation: efficacious
[2]; following IV and PO administration
  systemic plasma MGBG exposure: observed at all collected plasma time points
[2]; male, rhesus monkey, plasma, oral 10 mg/kg vs IV 1 mg/kg, two-compartmental analysis used
  bioavailability: 35%
[2]; [3]
  Tmax: 0.139 h
  half-life: 30.8 h
[2]; [4]
  Tmax: 3.33 h
  half-life: 24.2 h
[2]; [5]
  AUC: 1660 ng·h/mL
  Cmax: 757 ng/mL
[2]; [6]
  AUC: 4240 ng·h/mL
  Cmax: 192 ng/mL
[2]; single bolus IV 1 mg/kg, mean
  Clobs: 13.7 mL/min/kg
  VSSobs: 13.2 L/kg
[2]; single oral gavage 10 mg/kg, mean
  Clobs: 6.63 mL/min/kg
